The source of these data is US20260256775A1, “METHOD FOR TREATING MENTAL DISEASES” (SHANGHAI RAISING PHARMACEUTICAL CO., LTD., priority 2022, published 2026).

Test [1] deals with Chronic Unpredictable Mild Stress (CUMS) Depressive Rats. The test is described as follows: Forced swimming test (FST) in CUMS model rats. To be noted: 8th week of CUMS, 6-minute forced swimming, trazodone 10 mg/kg/day ig, x ± SD.
For test [2] the test system is unchanged. The test is described as follows: Sucrose preference test (SPT) in CUMS model rats. To be noted: trazodone 10 mg/kg/day ig, x ± SD; for SPT After 2 Weeks of Treatment (%): 5th week of CUMS; for SPT After 4 Weeks of Treatment (%): 7th week of CUMS.
Test [3] has the same test system. The test is described as follows: Elevated plus maze (EPM) test in CUMS model rats. Conditions: 9th week of CUMS, 5-minute EPM, trazodone 10 mg/kg/day ig, x ± SD.

For the molecule `O=c1n(CCCN2CCN(c3cccc(Cl)c3)CC2)nc2ccccn12` [Trazodone], the “Immobility Time in FST After 5 Weeks of Treatment (s)” value in test [1] (n=8) is on record as 82.28 ± 21.64 ^ s; in test [1] (n=8, listed as trazodone), “reduced”. Moreover, the “SPT After 2 Weeks of Treatment (%)” value in test [2] (n=8) was 74.00 ± 11.22%; in test [2] (n=8, listed as trazodone) it was “no significant difference”. In addition, the “SPT After 4 Weeks of Treatment (%)” value in test [2] (n=8) is 84.55 ± 16.77 ^ %; in test [2] (n=8, listed as trazodone) it was “significantly increased”. Also, the “Time Spent Exploring the Open Arms in the 6th Week of Treatment (s)” value in test [3] (n=8) is 4.90 ± 2.06 ^ s; in test [3] (n=8, listed as trazodone), “no significant change”.
